Eight compounds from ChEMBL document CHEMBL1135073, “Solution and solid-phase synthesis of potent inhibitors of hepatitis C virus NS3 proteinase” (Bioorg Med Chem Lett, 2002) can be followed below.

SMILES strings stand for the structures. *1 amine or outer side, *2 acyl side, *3 side chain or, on linkers, in order; H or OH if unused. Where a SMILES comes first, the peptide text is derived from it. [ ]: non-standard residue; d: D form. The star is where a group is joined. Nleψ(COCO) = CCCC[C@H](N[*:1])C(=O)C(=O)[*:2]; Acetyl(2-naphthyl) = O=C(Cc1ccc2ccccc2c1)*; NH(1S-phenylpropyl) = CC[C@H](N*)c1ccccc1; Phe(2-Me) = Cc1ccccc1C[C@H](N)C(=O)O; NleCONH2 = CCCC[C@H](N*)C(=O)C(N)=O; 3Thi = N[C@@H](Cc1ccsc1)C(=O)O; Phg = N[C@H](C(=O)O)c1ccccc1; Suc = O=C(CCC(=O)[*:2])[*:1]; Tle = CC(C)(C)[C@H](N)C(=O)O; Bn = c1ccc(C*)cc1

The target of the assay is NS3 (Hepatitis C virus, UniProt A3EZJ3). Put plainly: Inhibitory concentration against Hepatitis C virus NS3 proteinase. On the set-up: species or system Hepacivirus hominis.
Chain of NS3 (A3EZJ3 whole entry): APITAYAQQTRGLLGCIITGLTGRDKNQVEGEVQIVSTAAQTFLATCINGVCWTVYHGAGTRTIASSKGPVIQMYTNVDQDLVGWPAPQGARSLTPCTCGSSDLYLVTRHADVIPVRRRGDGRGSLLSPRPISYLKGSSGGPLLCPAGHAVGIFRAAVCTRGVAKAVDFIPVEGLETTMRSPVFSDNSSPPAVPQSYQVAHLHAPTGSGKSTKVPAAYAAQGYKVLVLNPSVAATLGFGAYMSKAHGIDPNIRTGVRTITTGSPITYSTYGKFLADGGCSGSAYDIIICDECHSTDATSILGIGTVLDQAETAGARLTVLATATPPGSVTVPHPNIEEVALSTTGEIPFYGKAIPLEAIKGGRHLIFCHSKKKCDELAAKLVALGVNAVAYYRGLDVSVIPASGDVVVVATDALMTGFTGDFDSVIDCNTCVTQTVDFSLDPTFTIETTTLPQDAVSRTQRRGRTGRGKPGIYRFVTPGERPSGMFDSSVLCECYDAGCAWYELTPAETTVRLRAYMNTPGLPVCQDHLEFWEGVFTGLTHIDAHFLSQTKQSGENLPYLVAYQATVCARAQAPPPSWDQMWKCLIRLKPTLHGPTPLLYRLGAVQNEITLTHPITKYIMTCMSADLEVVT
`CCCC[C@H](NC(=O)[C@H](CC(C)C)NC(=O)[C@@H](NC(=O)[C@H](Cc1ccccc1C)NC(=O)[C@H](CCC(=O)O)NC(=O)[C@H](CC(=O)O)NC(=O)Cc1ccc2ccccc2c1)C(C)(C)C)C(=O)C(N)=O` ({Acetyl(2-naphthyl)}-DE[Phe(2-Me)][Tle]L-NleCONH2) showed an IC50 of 90 nM. The result for `CCCC[C@H](NC(=O)[C@H](CC(C)C)NC(=O)[C@@H](NC(=O)[C@H](Cc1ccccc1C)NC(=O)[C@H](CCC(=O)O)NC(=O)[C@H](Cc1c[nH]c2ccccc12)NC(=O)CCC(=O)O)C(C)(C)C)C(=O)C(N)=O` (Suc-WE[Phe(2-Me)][Tle]L-NleCONH2) reads 41 nM. Regarding `CCCC[C@H](NC(=O)[C@H](CC(C)C)NC(=O)[C@@H](NC(=O)[C@H](Cc1ccccc1C)NC(=O)[C@H](COCc1ccccc1)NC(=O)[C@H](CC(=O)O)NC(=O)CCC(=O)O)C(C)(C)C)C(=O)C(N)=O` (Suc-DS(Bn)[Phe(2-Me)][Tle]L-NleCONH2), inhibition was half-maximal at 29 nM (IC50). As for `CCCC[C@H](NC(=O)[C@H](Cc1ccsc1)NC(=O)[C@@H](NC(=O)[C@H](Cc1ccccc1C)NC(=O)[C@H](CCC(=O)O)NC(=O)[C@H](CC(=O)O)NC(=O)CCC(=O)O)C(C)(C)C)C(=O)C(N)=O` (Suc-DE[Phe(2-Me)][Tle][3Thi]-NleCONH2), the figure is 130 nM; as for `CCCC[C@H](NC(=O)[C@H](CC(C)C)NC(=O)[C@@H](NC(=O)[C@H](Cc1ccccc1C)NC(=O)[C@H](CCC(=O)O)NC(=O)[C@H](CC(=O)O)NC(=O)CCC(=O)O)c1ccccc1)C(=O)C(N)=O` (Suc-DE[Phe(2-Me)][Phg]L-NleCONH2), 42 nM; as for `CCCC[C@H](NC(=O)[C@H](CC(C)C)NC(=O)[C@@H](NC(=O)[C@H](Cc1ccccc1C)NC(=O)[C@H](CCC(=O)O)NC(=O)[C@H](CC(=O)O)NC(=O)CCC(=O)O)C(C)(C)C)C(=O)C(=O)N[C@@H](CC)c1ccccc1` (Suc-DE[Phe(2-Me)][Tle]L[Nleψ(COCO)]-{NH(1S-phenylpropyl)}), 11 nM. As for `CCCC[C@H](NC(=O)[C@H](CC(C)C)NC(=O)[C@@H](NC(=O)[C@H](Cc1ccccc1C)NC(=O)[C@@H](NC(=O)[C@H](CC(=O)O)NC(=O)CCC(=O)O)C(C)C)C(C)(C)C)C(=O)C(N)=O` (Suc-DV[Phe(2-Me)][Tle]L-NleCONH2), the figure is 20 nM. Compound `CCCC[C@H](NC(=O)[C@H](CC(C)C)NC(=O)[C@@H](NC(=O)[C@H](Cc1ccc(OCc2ccccc2)cc1)NC(=O)[C@H](CCC(=O)O)NC(=O)[C@H](CC(=O)O)NC(=O)CCC(=O)O)C(C)(C)C)C(=O)C(N)=O` (Suc-DEY(Bn)[Tle]L-NleCONH2) had a 50% inhibitory concentration (IC50) of 110 nM.

Broadly, the IC50 is the concentration needed to halve the response being measured. Lower therefore signals higher potency.
